From patent US20180036382A1, “FORMULATIONS FOR ORAL ADMINISTRATION OF ACTIVE AGENTS WITH CONTROLLED ABSORPTION PROFILE” (Entera Bio Ltd., priority 2015, published 2018)

Key:
Assay type in all cases: in vivo, human
[1] = Pharmacokinetic study of oral teriparatide tablet in healthy volunteers (Example 1)
Description: An open label comparative pharmacokinetic study was performed in healthy volunteers over the course of 3 months. Each volunteer received—in each of two visits—the same oral tablet containing 0.75 mg of teriparatide, a recombinant form of parathyroid hormone (1-34).
The formulation was composed of teriparatide (0.75 mg), SNAC (sodium 8-N-(2-hydroxybenzoyl) aminocaprylate), soybean trypsin inhibitor (SBTI) and a small amount of magnesium stearate.
Tablets were administered in the morning after an 8-hour overnight fast and immediately followed by 150 ml of water. At each visit a standard meal was provided 3 hours after drug administration. […] There was a two weeks period between the visits.
(§1) To determine parathyroid hormone (1-34) (PTH(1-34)) concentrations, blood samples (4 ml each) were drawn via an indwelling catheter from the forearm vein at predetermined time points during each visit. The cannula was flushed with 1.5 ml normal saline after each sampling. In addition, to avoid sample dilution, 1 ml of blood was drawn and discarded before the next sample. The blood samples were taken at following times: baseline (predose), 10 minutes, 15 minutes, 20 minutes, 30 minutes, 45 minutes, 60 minutes, 75 minutes, 90 minutes, 105 minutes, 2 hours, 3 hours, 4 hours and 5 hours post-administration. Each blood sample was collected into a single tube containing EDTA (ethylenediaminetetraacetic acid) and placed on ice. Within 15 minutes of blood collection, samples were centrifuged for 10 minutes at 4° C. (2500 rotations per minute) and the plasma was separated and divided into two or three aliquots. Each aliquot was transferred into appropriately labeled polypropylene tubes and stored at approximately −20° C. pending analysis. PTH (1-34) levels were measured using an IDS-iSYS automated assay for the measurement of intact PTH (1-34) in human plasma or serum.

[2] = Phase I clinical trial of oral teriparatide formulations, plasma PTH (1-34) versus subcutaneous injection (Example 2)
Description: A Phase I clinical study of exemplary oral formulations comprising teriparatide (parathyroid hormone (1-34)) was conducted at the Hadassah Clinical Research Center. 42 healthy volunteers were included throughout the study.
The formulation was composed of teriparatide (200, 400, 680, 1400 or 1800μ.g), SNAC (sodium 8-N-(2-hydroxybenzoyl) aminocaprylate), soybean trypsin inhibitor and magnesium stearate.
Tablets were administered in the morning after an 8-hour overnight fast and immediately followed by 150 ml of water. At each visit a standard meal was provided 3 hours after drug administration.
as §1, with “hormone” for “hormone (1-34) (PTH(1-34))”, “points.” for “points during each visit.”, “(predose),” for “(predose), 10 minutes,”, “15” for “15 minutes, 20”
Oral administration of teriparatide was performed as described hereinabove at doses of 200, 400, 680, 1400 or 1800 μg. The Cmax of PTH (1-34) for each orally administered dose was compared with the Cmax of PTH (1-34) for subcutaneous injection of 20 μg teriparatide.

[3] = tested on: cAMP, a known marker of PTH activity; assay: Plasma cAMP levels after teriparatide administration (marker of PTH activity); conditions: FIG. 4
Description: In addition, plasma levels of cAMP, a known marker of PTH activity, were determined in order to confirm biological activity of administered PTH. cAMP plasma levels were measured following oral administration of 680 μg teriparatide or subcutaneous injection of 20 μg teriparatide, as described hereinabove.

CC[C@H](C)[C@H](NC(=O)[C@H](CCC(=O)O)NC(=O)[C@H](CO)NC(=O)[C@@H](NC(=O)[C@@H](N)CO)C(C)C)C(=O)N[C@@H](CCC(N)=O)C(=O)N[C@@H](CC(C)C)C(=O)N[C@@H](CCSC)C(=O)N[C@@H](Cc1cnc[nH]1)C(=O)N[C@@H](CC(N)=O)C(=O)N[C@@H](CC(C)C)C(=O)NCC(=O)N[C@@H](CCCCN)C(=O)N[C@@H](Cc1cnc[nH]1)C(=O)N[C@@H](CC(C)C)C(=O)N[C@@H](CC(N)=O)C(=O)N[C@@H](CO)C(=O)N[C@@H](CCSC)C(=O)N[C@@H](CCC(=O)O)C(=O)N[C@@H](CCCN=C(N)N)C(=O)N[C@H](C(=O)N[C@@H](CCC(=O)O)C(=O)N[C@@H](Cc1c[nH]c2ccccc12)C(=O)N[C@@H](CC(C)C)C(=O)N[C@@H](CCCN=C(N)N)C(=O)N[C@@H](CCCCN)C(=O)N[C@@H](CCCCN)C(=O)N[C@@H](CC(C)C)C(=O)N[C@@H](CCC(N)=O)C(=O)N[C@@H](CC(=O)O)C(=O)N[C@H](C(=O)N[C@@H](Cc1cnc[nH]1)C(=O)N[C@@H](CC(N)=O)C(=O)N[C@@H](Cc1ccccc1)C(=O)O)C(C)C)C(C)C [teriparatide]
Cmax after 1st administration ([1]; oral tablet 0.75 mg teriparatide with SNAC, SBTI, magnesium stearate, fasted healthy volunteers, plasma PTH (1-34), one table row per individual subject (A, B, C)): 35 picogram/ml
time for parathyroid hormone (1-34) levels to return to baseline levels after tablet administration ([1]; oral tablet 0.75 mg teriparatide, FIGS. 1A-1C): ≤ 60 min
time after administration at which peak concentration (Cmax) occurred ([1]; oral tablet 0.75 mg teriparatide, all subjects and administrations, Table 3, FIGS. 1A-1C): ≤ 20 min
Cmax after 2nd administration ([1]; same oral tablet 0.75 mg teriparatide, second visit two weeks later, plasma PTH (1-34), one table row per individual subject (A, B, C)): 36 picogram/ml
decline of PTH levels following oral administration compared with subcutaneous administration ([2]; oral 1800 μg versus subcutaneous 20 μg teriparatide, FIG. 3): declined considerably more rapidly
dose dependence of Cmax of PTH (1-34) following oral administration ([2]; oral doses 200, 400, 680, 1400 or 1800 μg teriparatide, FIG. 2): proportional to the dose
oral dose providing a Cmax equivalent to that of subcutaneous administration of 20 μg teriparatide ([2]; oral tablets with SNAC, soybean trypsin inhibitor, magnesium stearate, FIG. 2): roughly 750 μg
plasma cAMP levels ([3]; oral administration of 680 μg teriparatide, compared with subcutaneous 20 μg): increased plasma cAMP levels to a similar degree
plasma cAMP levels ([3]; subcutaneous administration of 20 μg teriparatide, compared with oral 680 μg): increased plasma cAMP levels to a similar degree
